Test results: patent US11065335B2, “Methods of treating leukemia using compositions containing bis(benzylthio)octanoic acid and ion pairs thereof” (Rafael Pharmaceuticals, Inc., priority 2007, dated 2021)
Counter-ions that a name gives are not always drawn.

Assays:
[1] = system: A2780 ovarian tumor cells and BXPC3 human pancreatic cancer cells; test: CellTiter Glo cell viability assay, text statements not split by cell line; type: cell-based; details: vehicle alone 3200 μM
Description: Two types of human tumor cells were used in this investigation: BXPC3 human pancreatic cancer cells and A2780 human ovarian cancer cells. The BXPC3 cells were originally obtained from American Type Cell Culture (ATCC). […] The tumor cells were split at a ratio of 1:5 every 4-5 days by trypsinization and resuspended in fresh medium in a new flask. Cells were harvested for experiments at 70-90% confluency.
(§1) The corresponding vehicle concentrations were 64, 32, 16, 12, and 4 mM respectively. A sixty-four mM aliquot of vehicle was dissolved in 10 mL of water. […] A 5 μL aliquot of this stock solution was added to 95 μL of tumor cells in media. Upon dilution in the wells, the corresponding drug concentrations were 400, 200, 100, 75 and 25 μM respectively.
This gave a 16 mM solution.
This stock was further diluted serially in complete media to give 8 mM, 4 mM 2 mM, 1.5 mM and 0.5 mM working solutions.
The tumor cells were treated for 24 hrs with the test article in serum-containing medium. After 24 hrs of treatment the number of viable tumor cells was determined.
The number of cells targeted for the study was 4×10^3 per well in 100 μL of medium. The actual number of cells were counted and seeded in the wells of a 96 well-plate.
For each cell line the concentrations of test articles or vehicles specified above was used. Five μL of the working solution for each test article or vehicle was added to 95 μL of cell culture media. The corresponding final concentrations of test articles are 20 fold more diluted than the working solutions. […] Additionally, a set of wells was treated with cell culture medium in the absence of cells to obtain a value for background luminescence.
The number of viable cells was determined by using the CellTiter Glo® Assay. Specifically, reagents were mixed and allowed to come to room temperature according to instructions from Promega, Inc. (Madison, Wis.). Cell plates were removed from the cell culture incubator and left on the bench for 30 minutes until they reach room temperature. A one-hundred μL aliquot CellTiter Glo® reagent was added to each well with a 12-channel Eppendorf pipettor. The cells were lysed by shaking the plate for 2 minutes in a shaker. Then, the cells were kept at room temperature for 10 minutes to stabilize the luminescent signal. The luminescence was measured using the FLUOstar OPTIMA plate reader (BMG Labtech, Inc., Durham, N.C.).
Data from luminescence readings was copied onto EXCEL spreadsheets, and cell growth relative to untreated cells was calculated, using the following equation: […]
The calculated values were imported into SigmaPlot, v11. A Four-Parameter Logistic Curve of the “mean relative cell growth as a function of the concentrations of the test articles” was generated. The EC50 values were determined from the curves. The R-squared value provides an indication of the degree of fitness of data to the curve. For each experiment, the percentage of viable cells was be expressed as the mean of 9 replicates. The average was calculated by taking the mean±standard deviation of the three experiments.

[2] = system: A2780 human ovarian cancer cells; test: CellTiter Glo cell viability assay, A2780 cells; details: 24 hrs; for A2780 Cell Viability (alkali salt formulations): CPI-613 to base 1:1
Description: (§2) Two types of human tumor cells were used in this investigation: BXPC3 human pancreatic cancer cells and A2780 human ovarian cancer cells. The BXPC3 cells were originally obtained from American Type Cell Culture (ATCC). The ovarian tumor cells were gifts from Roswell Park Cancer Institute, Buffalo, N.Y. All tumor cells were maintained at 37° C. in a humidified 5% CO2 atmosphere in T75 tissue culture flasks containing 20 mL of Roswell Park Memorial Institute (RPMI) 1640 containing 2 mM L-glutamine, 10% fetal bovine serum (FBS) and 1% penicillin and streptomycin (100 IU/mL penicillin and 100 μg/mL streptomycin). The tumor cells were split at a ratio of 1:5 every 4-5 days by trypsinization and resuspended in fresh medium in a new flask. Cells were harvested for experiments at 70-90% confluency.
as §1, with “CPI-613 (i.e., 6,8-bis(benzylthio)octanoic acid) stock solutions at concentrations of 8, 4, 2, 1.5 and 0.5 mM were prepared in the appropriate vehicles. The molar ratio of vehicle to CPI-613 was maintained at 8:1. The” for “The”, “water. Next, 8 mM of CPI-613 was added and the mixture was stirred until a clear solution was obtained.” for “water.”
(§3) For the sodium salt and potassium salt form of CPI-613, 1 equivalent of CPI-613 solid was dissolved in water. Sixty-two mg of CPI-613 (0.00016 mol) was added to 10 mL of water, then 165 μL of 1M NaOH or KOH was added and stirred until a clear solution was obtained. This gave a 16 mM solution. The resulting 16 mM solution was then serially diluted, thereby providing 8 mM and 4 mM solutions of the CPI-613 salt form. For the ammonium salt, vehicle to drug ratio was maintained at 8:1 and the formulation was prepared using procedures analogous to those described above in Section 2 relating to preparation of CPI-613 formulations in different vehicles.
(§4) CPI-613 formulated in 1M triethanolamine (TEA) was used as an internal control during formulation screening. To prepare a 16 mM of working stock of CPI-613, 50 mg/mL of CPI-613 (128.66 mM of CPI-613 in 1M TEA) was diluted in complete cell culture media containing 10% FBS. That is, 310 μL of a 128.66 mM solution of CPI-613 in 1M TEA was added to 2.19 mL of cell culture media. This stock was further diluted serially in complete media to give 8 mM, 4 mM 2 mM, 1.5 mM and 0.5 mM working solutions. On the day of testing, 5 μL of this working solution was added to 95 μL of cell culture media (20 fold dilution) resulting final concentrations of 400, 200, 100, 75 and 25 μM CPI-613, respectively. The ratio of CPI-613 to TEA was maintained at 1:8 ratio at all times.
(§5) The cell viability of CPI-613 formulations formulated at a ratio of 1:8, CPI-613 to vehicle, was assessed by exposing the A2780 ovarian tumor cells and BXPC3 human pancreatic cancer cells to the following CPI-613 concentrations: 400 μM (3200 μM vehicle), 200 μM (1600 μM vehicle), 100 μM (800 μM vehicle), 75 μM (600 μM vehicle) and 25 μM (200 μM vehicle) The impact of corresponding vehicles at 3200, 1600 and 800 μM concentrations was also tested in tumor cells for cell viability. […] CPI-613 in TEA was used as an internal control. The tumor cells were treated for 24 hrs with the test article in serum-containing medium. After 24 hrs of treatment the number of viable tumor cells was determined.
(§6) The number of cells targeted for the study was 4×10^3 per well in 100 μL of medium. The actual number of cells were counted and seeded in the wells of a 96 well-plate. The cells were incubated for ˜24 hrs before addition of CPI-613.
(§7) For each cell line the concentrations of test articles or vehicles specified above was used.

[3] = system: BXPC3 human pancreatic cancer cells; test: CellTiter Glo cell viability assay, BXPC3 cells; details: 24 hrs; for BXPC3 Cell Viability (alkali salt formulations): CPI-613 to base 1:1
Description: as §2
as §1, with “CPI-613 (i.e., 6,8-bis(benzylthio)octanoic acid) stock solutions at concentrations of 8, 4, 2, 1.5 and 0.5 mM were prepared in the appropriate vehicles. The molar ratio of vehicle to CPI-613 was maintained at 8:1. The” for “The”, “water. Next, 8 mM of CPI-613 was added and the mixture was stirred until a clear solution was obtained.” for “water.”
as §3, §4, §5, §6, §7

[4] = CellTiter Glo cell viability assay, A2780 cells; details: human, A2780 Cell Viability; for viability: 24 hrs
Description: as §2
as §1, with “CPI-613 (i.e., 6,8-bis(benzylthio)octanoic acid) stock solutions at concentrations of 8, 4, 2, 1.5 and 0.5 mM were prepared in the appropriate vehicles. The molar ratio of vehicle to CPI-613 was maintained at 8:1. The” for “The”, “water. Next, 8 mM of CPI-613 was added and the mixture was stirred until a clear solution was obtained.” for “water.”
as §3, §4, §5, §6, §7

[5] = CellTiter Glo cell viability assay, BXPC3 cells; details: human, BXPC3 Cell Viability; for viability: 24 hrs
Description: as §2
as §1, with “CPI-613 (i.e., 6,8-bis(benzylthio)octanoic acid) stock solutions at concentrations of 8, 4, 2, 1.5 and 0.5 mM were prepared in the appropriate vehicles. The molar ratio of vehicle to CPI-613 was maintained at 8:1. The” for “The”, “water. Next, 8 mM of CPI-613 was added and the mixture was stirred until a clear solution was obtained.” for “water.”
as §3, §4, §5, §6, §7

[6] = A2780 ovarian cancer cells, vehicle alone 800 μM
[7] = A2780 ovarian cancer cells, vehicle alone 1600 μM
[8] = A2780 ovarian cancer cells, vehicle alone 3200 μM
[9] = BXPC3 pancreatic cancer cells, vehicle alone 800 μM
[10] = BXPC3 pancreatic cancer cells, vehicle alone 1600 μM
[11] = BXPC3 pancreatic cancer cells, vehicle alone 3200 μM

Molecule	impact of vehicle on cancer cell killing [1]	viability at 24 h, 800 μM [4, 6] [%]	viability at 24 h, 1600 μM [4, 7] [%]	viability at 24 h, 3200 μM [4, 8] [%]	viability at 24 h, 800 μM [5, 9] [%]	viability at 24 h, 1600 μM [5, 10] [%]	viability at 24 h, 3200 μM [5, 11] [%]	also measured
NCCCO [3-amino-1-proponol]	did not show a significant impact on cancer cell killing							
O=C(O)CCCCC(CCSCc1ccccc1)SCc1ccccc1 (stereo not drawn) [CPI-613 potassium salt]								A2780 Cell Viability (alkali salt formulations) ([2]; CPI-613 25 μM): ++ (tumor cell viability of >70% up to 95%); A2780 Cell Viability (alkali salt formulations) ([2]; CPI-613 75 μM): ++ (tumor cell viability of >70% up to 95%); A2780 Cell Viability (alkali salt formulations) ([2]; CPI-613 100 μM): ++ (tumor cell viability of >70% up to 95%); A2780 Cell Viability (alkali salt formulations) ([2]; CPI-613 200 μM): +++ (tumor cell viability of >30% up to 70%); A2780 Cell Viability (alkali salt formulations) ([2]; CPI-613 400 μM): +++++ (tumor cell viability of ≤10%); cell kill in A2780 cells ([2]; salt formulation at 200 μM): ~65%; cell kill in A2780 cells ([2]; salt formulation at 400 μM): all the cells were killed; BXPC3 Cell Viability (alkali salt formulations) ([3]; CPI-613 25 μM): + (tumor cell viability of >95%); BXPC3 Cell Viability (alkali salt formulations) ([3]; CPI-613 75 μM): ++ (tumor cell viability of >70% up to 95%); BXPC3 Cell Viability (alkali salt formulations) ([3]; CPI-613 100 μM): ++ (tumor cell viability of >70% up to 95%); BXPC3 Cell Viability (alkali salt formulations) ([3]; CPI-613 200 μM): +++ (tumor cell viability of >30% up to 70%); BXPC3 Cell Viability (alkali salt formulations) ([3]; CPI-613 400 μM): +++++ (tumor cell viability of ≤10%); cell kill in BXPC3 cells ([3]; salt formulation at 200 μM): ~50%; cell kill in BXPC3 cells ([3]; salt formulation at 400 μM): all the cells were killed
OCCNCCO [Diethanolamine]	did not show a significant impact on cancer cell killing	85 to 95	85 to 95	> 95	85 to 95	85 to 95	85 to 95	
CCNCC [Diethylamine]	did not show a significant impact on cancer cell killing							viability at 24 h, 800 μM ([4]; vehicle alone 800 μM): > 95%; viability at 24 h, 1600 μM ([4]; vehicle alone 1600 μM): > 95%; viability at 24 h, 3200 μM ([4]; vehicle alone 3200 μM): 85 to 95%; viability at 24 h, 800 μM ([5]; vehicle alone 800 μM): > 95%; viability at 24 h, 1600 μM ([5]; vehicle alone 1600 μM): 70 to 85%; viability at 24 h, 3200 μM ([5]; vehicle alone 3200 μM): < 70%
CC(O)CNCC(C)O (stereo not drawn) [Diisopropanolamine]	appear to have come cell killing effects							
NCCO [Ethanolamine]		> 95	> 95	> 95	85 to 95	85 to 95	85 to 95	
NCCN [Ethylenediamine]	appear to have come cell killing effects	85 to 95	85 to 95	< 70	> 95	70 to 85	< 70	
NCCCC[C@H](N)C(=O)O [Lysine]	did not show a significant impact on cancer cell killing	> 95	> 95	> 95	> 95	> 95	> 95	
CNC[C@H](O)[C@@H](O)[C@H](O)[C@H](O)CO [Meglumine]	did not show a significant impact on cancer cell killing							viability ([4]; vehicle alone 800 μM): > 95%; viability ([4]; vehicle alone 1600 μM): > 95%; viability ([4]; vehicle alone 3200 μM): > 95%; viability ([5]; vehicle alone 800 μM): 85 to 95%; viability ([5]; vehicle alone 1600 μM): 85 to 95%; viability ([5]; vehicle alone 3200 μM): 85 to 95%
C1CNCCN1 [Piperazine]	did not show a significant impact on cancer cell killing	85 to 95	70 to 85	85 to 95	85 to 95	85 to 95	70 to 85	
CCN(CC)CC [Triethylamine]	did not show a significant impact on cancer cell killing	> 95	> 95	> 95	> 95	> 95	> 95	
Aminopropanediol	did not show a significant impact on cancer cell killing							
